From patent US11253517B2, “Small molecule regulators of steroid receptor coactivators and methods of use thereof” (BAYLOR COLLEGE OF MEDICINE, priority 2016, dated 2022)

Columns and labels:
Test in all cases: Kinase-Glo Luminescent Kinase Assay
Type in all cases: biochemical
IRAK4 = biological target: T1, IRAK4 (Homo sapiens, UniProt Q9NWZ3)
T1 construct: purchased Promega
T1 sequence (Q9NWZ3 1-460): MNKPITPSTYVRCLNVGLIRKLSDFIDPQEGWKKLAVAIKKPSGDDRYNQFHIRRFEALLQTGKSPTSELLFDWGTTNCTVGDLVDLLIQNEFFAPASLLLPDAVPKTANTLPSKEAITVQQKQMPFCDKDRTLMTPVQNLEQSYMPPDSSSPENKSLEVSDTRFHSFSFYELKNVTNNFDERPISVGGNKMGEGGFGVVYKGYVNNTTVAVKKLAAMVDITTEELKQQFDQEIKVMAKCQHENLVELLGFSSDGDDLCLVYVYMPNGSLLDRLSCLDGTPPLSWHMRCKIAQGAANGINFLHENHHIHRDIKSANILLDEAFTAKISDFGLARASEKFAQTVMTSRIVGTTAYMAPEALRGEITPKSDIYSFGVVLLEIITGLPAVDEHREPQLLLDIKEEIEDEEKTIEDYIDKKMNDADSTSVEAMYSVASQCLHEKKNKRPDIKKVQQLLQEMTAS
Experimental: (§1) SI-12 was also tested for its ability to disrupt kinase activity. The effects of the compound were tested on a panel of 24 kinases using a Kinase-Glo Luminescent Kinase Assay system (Promega; Madison, Wis.). SI-12 was tested, at concentrations of 1000 nM, 50 nM, and 5 nM, for its ability to interfere with recombinant kinases in the assay system. The amount of ATP to ADP conversion in the presence of SI-12 was compared to a DMSO vehicle control. The values shown in Table 3 represent the percentage of kinase activity compared to a DMSO vehicle control.
(§2) In Table 3, “−” represents less than 20% inhibition; “+” represents from 20% to 40% inhibition; “++” represents from 40% to 60% inhibition; and “+++” represents greater than 60% inhibition.

DAPK1 = biological target: T2, DAPK1 (Homo sapiens, UniProt P53355)
T2 construct: purchased Promega
Experimental: as §1, §2

PAK1/CDC42 = biological target: T3, PAK1/CDC42 (Homo sapiens, UniProt Q13153)
T3 construct: purchased Promega
Experimental: as §1, §2

PKCa = biological target: T4, PKCa (Homo sapiens, UniProt P17252)
T4 construct: purchased Promega
Experimental: as §1, §2

AMPK A1 /B1/G2 = biological target: T5, AMPK A1 /B1/G2 (Homo sapiens, UniProt Q13131)
T5 construct: purchased Promega
Experimental: as §1, §2

JAK3 = biological target: T6, JAK3 (Homo sapiens, UniProt P52333)
T6 construct: purchased Promega
T6 sequence (P52333 1-1124): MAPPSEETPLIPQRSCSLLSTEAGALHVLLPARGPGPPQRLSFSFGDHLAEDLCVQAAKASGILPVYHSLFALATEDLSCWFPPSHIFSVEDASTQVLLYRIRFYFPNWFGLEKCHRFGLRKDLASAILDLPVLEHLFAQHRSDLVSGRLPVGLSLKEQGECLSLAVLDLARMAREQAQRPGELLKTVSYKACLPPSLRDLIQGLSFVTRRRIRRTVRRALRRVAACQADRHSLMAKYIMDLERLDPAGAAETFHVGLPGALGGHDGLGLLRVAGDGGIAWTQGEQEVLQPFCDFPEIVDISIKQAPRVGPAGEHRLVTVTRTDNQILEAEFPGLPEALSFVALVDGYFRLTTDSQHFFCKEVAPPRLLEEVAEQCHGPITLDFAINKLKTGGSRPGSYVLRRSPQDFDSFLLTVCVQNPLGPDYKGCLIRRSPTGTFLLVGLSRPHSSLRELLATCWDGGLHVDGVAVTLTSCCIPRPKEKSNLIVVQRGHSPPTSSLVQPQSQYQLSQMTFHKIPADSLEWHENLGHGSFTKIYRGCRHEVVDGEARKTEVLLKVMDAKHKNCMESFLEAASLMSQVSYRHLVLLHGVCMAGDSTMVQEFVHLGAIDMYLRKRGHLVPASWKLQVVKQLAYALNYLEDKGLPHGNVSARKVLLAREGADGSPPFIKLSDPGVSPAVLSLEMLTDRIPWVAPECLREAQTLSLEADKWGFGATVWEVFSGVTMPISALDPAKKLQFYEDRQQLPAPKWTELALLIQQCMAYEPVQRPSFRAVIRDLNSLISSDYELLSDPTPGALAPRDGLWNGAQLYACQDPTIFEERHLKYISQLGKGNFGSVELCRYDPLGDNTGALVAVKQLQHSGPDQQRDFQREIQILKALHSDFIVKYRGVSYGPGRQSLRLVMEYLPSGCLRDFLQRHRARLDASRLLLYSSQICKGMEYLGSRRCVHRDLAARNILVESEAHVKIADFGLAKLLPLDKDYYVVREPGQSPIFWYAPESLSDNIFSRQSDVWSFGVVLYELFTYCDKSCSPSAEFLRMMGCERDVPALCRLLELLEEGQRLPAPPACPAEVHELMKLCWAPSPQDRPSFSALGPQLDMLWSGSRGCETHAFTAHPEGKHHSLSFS
Experimental: as §1, §2

SYK = biological target: T7, SYK (Homo sapiens, UniProt P43405)
T7 construct: purchased Promega
Experimental: as §1, §2

Aurora A = biological target: T8, Aurora A (Homo sapiens, UniProt O14965)
T8 construct: purchased Promega
T8 sequence (O14965 1-403): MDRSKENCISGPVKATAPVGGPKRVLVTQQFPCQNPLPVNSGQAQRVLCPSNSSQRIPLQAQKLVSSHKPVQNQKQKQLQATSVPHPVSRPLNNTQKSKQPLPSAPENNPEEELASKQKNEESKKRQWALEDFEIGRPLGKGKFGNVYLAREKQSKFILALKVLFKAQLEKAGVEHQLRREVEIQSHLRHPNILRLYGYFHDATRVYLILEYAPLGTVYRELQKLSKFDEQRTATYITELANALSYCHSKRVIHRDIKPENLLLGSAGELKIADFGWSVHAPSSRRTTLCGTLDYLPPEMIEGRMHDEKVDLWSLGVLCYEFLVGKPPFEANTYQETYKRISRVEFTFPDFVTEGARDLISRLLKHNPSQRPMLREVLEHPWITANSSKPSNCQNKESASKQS
Experimental: as §1, §2

P38A = biological target: T9, P38A (Homo sapiens, UniProt Q16539)
T9 construct: purchased Promega
Experimental: as §1, §2

T5 sequence (Q13131 whole entry): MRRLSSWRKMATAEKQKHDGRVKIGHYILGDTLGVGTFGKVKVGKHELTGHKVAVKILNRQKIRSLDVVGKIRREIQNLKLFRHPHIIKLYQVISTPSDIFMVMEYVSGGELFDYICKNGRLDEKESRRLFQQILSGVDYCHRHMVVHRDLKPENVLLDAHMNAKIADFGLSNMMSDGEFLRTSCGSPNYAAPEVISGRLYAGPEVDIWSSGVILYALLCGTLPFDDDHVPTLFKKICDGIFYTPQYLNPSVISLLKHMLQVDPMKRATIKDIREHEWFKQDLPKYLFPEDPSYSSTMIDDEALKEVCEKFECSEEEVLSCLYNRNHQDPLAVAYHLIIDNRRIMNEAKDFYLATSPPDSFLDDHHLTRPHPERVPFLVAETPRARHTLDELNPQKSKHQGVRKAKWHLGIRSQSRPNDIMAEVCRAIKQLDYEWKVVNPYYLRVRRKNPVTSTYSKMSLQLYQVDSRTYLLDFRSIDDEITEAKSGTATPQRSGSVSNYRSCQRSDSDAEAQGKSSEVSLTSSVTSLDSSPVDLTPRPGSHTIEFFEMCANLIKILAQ
T5 sequence (Q9Y478 whole entry partner): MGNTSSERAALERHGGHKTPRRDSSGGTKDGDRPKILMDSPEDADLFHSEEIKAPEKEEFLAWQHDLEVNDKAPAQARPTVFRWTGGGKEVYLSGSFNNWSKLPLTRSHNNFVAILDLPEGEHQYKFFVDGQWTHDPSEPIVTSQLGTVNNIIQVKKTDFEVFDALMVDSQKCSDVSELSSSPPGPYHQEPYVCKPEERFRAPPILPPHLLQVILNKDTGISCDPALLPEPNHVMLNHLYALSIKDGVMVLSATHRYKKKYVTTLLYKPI
T5 sequence (Q9UGJ0 whole entry partner): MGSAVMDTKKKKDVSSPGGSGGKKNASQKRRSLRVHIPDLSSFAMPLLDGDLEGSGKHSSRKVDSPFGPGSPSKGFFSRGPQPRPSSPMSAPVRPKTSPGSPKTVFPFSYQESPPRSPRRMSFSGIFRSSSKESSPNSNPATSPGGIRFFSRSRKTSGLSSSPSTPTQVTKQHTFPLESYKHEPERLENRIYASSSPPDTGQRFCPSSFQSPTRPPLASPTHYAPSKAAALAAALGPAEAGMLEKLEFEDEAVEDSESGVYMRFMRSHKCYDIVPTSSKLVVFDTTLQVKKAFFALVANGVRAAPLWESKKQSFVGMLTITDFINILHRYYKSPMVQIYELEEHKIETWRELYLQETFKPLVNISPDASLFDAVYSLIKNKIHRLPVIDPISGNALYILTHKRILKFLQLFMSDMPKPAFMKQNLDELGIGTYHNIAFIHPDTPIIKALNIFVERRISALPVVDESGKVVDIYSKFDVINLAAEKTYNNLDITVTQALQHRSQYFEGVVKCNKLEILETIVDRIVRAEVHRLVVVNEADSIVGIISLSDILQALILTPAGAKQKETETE
T3 sequence (Q13153 whole entry): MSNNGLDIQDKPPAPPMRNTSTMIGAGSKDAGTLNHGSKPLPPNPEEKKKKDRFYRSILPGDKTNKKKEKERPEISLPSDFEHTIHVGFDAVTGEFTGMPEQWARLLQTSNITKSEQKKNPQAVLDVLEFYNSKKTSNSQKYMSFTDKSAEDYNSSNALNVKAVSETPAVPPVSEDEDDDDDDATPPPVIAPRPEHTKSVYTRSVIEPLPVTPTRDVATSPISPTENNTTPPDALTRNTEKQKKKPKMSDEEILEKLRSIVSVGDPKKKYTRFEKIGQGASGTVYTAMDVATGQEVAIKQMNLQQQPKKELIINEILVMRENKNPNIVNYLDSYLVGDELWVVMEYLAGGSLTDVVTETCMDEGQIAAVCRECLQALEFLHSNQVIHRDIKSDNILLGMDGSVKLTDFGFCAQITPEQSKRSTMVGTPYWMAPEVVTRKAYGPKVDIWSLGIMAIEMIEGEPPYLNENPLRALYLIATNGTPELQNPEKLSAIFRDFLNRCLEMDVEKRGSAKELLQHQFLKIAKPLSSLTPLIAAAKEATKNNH
T2 sequence (P53355 whole entry): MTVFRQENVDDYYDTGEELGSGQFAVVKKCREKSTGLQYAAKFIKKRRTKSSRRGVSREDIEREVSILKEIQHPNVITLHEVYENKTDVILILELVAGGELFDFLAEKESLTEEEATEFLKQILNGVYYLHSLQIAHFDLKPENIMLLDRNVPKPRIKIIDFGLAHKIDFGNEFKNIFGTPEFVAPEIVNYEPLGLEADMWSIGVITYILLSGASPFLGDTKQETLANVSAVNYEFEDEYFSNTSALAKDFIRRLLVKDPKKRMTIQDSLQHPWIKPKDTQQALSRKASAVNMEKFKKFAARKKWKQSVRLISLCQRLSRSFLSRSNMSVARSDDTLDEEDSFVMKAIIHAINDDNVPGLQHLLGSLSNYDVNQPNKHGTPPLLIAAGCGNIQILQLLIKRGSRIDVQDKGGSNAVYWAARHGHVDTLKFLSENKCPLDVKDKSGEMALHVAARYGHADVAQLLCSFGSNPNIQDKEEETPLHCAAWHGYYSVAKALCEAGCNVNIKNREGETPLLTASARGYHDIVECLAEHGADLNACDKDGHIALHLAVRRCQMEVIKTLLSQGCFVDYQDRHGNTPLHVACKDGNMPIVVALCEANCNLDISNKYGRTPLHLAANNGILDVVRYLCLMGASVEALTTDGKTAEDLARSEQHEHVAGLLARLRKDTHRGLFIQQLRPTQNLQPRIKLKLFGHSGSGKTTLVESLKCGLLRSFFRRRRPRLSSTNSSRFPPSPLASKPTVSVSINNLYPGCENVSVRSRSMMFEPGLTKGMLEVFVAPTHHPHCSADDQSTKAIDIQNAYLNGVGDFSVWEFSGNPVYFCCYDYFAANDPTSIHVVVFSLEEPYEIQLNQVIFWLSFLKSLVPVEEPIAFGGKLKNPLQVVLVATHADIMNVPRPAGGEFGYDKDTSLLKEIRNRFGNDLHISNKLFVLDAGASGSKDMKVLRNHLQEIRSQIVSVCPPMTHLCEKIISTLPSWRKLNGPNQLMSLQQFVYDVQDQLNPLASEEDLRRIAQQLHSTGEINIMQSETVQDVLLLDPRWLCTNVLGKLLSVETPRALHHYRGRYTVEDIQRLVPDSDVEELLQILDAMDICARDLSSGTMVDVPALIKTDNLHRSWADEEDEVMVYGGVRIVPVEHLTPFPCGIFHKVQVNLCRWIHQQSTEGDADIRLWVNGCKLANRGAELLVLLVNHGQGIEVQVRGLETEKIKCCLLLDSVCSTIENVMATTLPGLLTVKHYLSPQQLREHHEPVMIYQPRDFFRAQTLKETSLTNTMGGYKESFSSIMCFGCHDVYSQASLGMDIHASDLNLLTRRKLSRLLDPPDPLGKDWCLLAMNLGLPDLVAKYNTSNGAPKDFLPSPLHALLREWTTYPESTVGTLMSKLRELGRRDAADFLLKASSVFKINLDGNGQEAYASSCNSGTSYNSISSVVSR
T9 sequence (Q16539 2-360 limits assumed): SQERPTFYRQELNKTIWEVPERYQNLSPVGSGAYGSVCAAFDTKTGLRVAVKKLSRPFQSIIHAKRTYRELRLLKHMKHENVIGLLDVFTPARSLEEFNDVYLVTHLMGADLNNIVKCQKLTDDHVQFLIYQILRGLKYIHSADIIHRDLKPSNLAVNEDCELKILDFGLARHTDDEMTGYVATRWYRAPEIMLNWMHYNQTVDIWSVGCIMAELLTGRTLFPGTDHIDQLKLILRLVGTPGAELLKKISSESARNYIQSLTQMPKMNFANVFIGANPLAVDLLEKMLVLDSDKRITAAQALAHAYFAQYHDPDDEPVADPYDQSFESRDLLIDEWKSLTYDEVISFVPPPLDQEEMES

Q: Which results are given for `CC(=NNc1nc2cc(F)c(F)cc2n1C)c1ccc(F)cn1` [SI-12]?
A: IRAK4 kinase inhibition (IRAK4; 5 nM): − (less than 20% inhibition); IRAK4 kinase inhibition (IRAK4; 50 nM): − (less than 20% inhibition); IRAK4 kinase inhibition (IRAK4; 1000 nM): − (less than 20% inhibition); DAPK1 kinase inhibition (DAPK1; 5 nM): − (less than 20% inhibition); DAPK1 kinase inhibition (DAPK1; 50 nM): − (less than 20% inhibition); DAPK1 kinase inhibition (DAPK1; 1000 nM): − (less than 20% inhibition); PAK1/CDC42 kinase inhibition (PAK1/CDC42; 5 nM): − (less than 20% inhibition); PAK1/CDC42 kinase inhibition (PAK1/CDC42; 50 nM): − (less than 20% inhibition); PAK1/CDC42 kinase inhibition (PAK1/CDC42; 1000 nM): − (less than 20% inhibition); PKCa kinase inhibition (PKCa; 5 nM): − (less than 20% inhibition); PKCa kinase inhibition (PKCa; 50 nM): − (less than 20% inhibition); PKCa kinase inhibition (PKCa; 1000 nM): − (less than 20% inhibition); AMPK A1 /B1/G2 kinase inhibition (AMPK A1 /B1/G2; 5 nM): − (less than 20% inhibition); AMPK A1 /B1/G2 kinase inhibition (AMPK A1 /B1/G2; 50 nM): − (less than 20% inhibition); AMPK A1 /B1/G2 kinase inhibition (AMPK A1 /B1/G2; 1000 nM): − (less than 20% inhibition); JAK3 kinase inhibition (JAK3; 5 nM): − (less than 20% inhibition); JAK3 kinase inhibition (JAK3; 50 nM): + (from 20% to 40% inhibition); JAK3 kinase inhibition (JAK3; 1000 nM): + (from 20% to 40% inhibition); SYK kinase inhibition (SYK; 5 nM): − (less than 20% inhibition); SYK kinase inhibition (SYK; 50 nM): − (less than 20% inhibition); SYK kinase inhibition (SYK; 1000 nM): − (less than 20% inhibition); Aurora A kinase inhibition (Aurora A; 5 nM): − (less than 20% inhibition); Aurora A kinase inhibition (Aurora A; 50 nM): − (less than 20% inhibition); Aurora A kinase inhibition (Aurora A; 1000 nM): − (less than 20% inhibition); P38A kinase inhibition (P38A; 5 nM): − (less than 20% inhibition); P38A kinase inhibition (P38A; 50 nM): − (less than 20% inhibition); P38A kinase inhibition (P38A; 1000 nM): − (less than 20% inhibition)
